Measurements: paper PMC10710035 (Breast cancer research and treatment, 2023)
Read-outs that look alike come from different tables or passages of the source.

Experiments:
[1] = system: patients with advanced solid tumors; format: in vivo
[2] = Plasma pharmacokinetics, cycle 1 day 3; format: in vivo, human; conditions: in vivo
[3] = system: patients with advanced solid tumors
[4] = system: BRCA mutated TNBC; conditions: addition of 120 mg BID to carboplatin plus paclitaxel; BROCADE 2; cited from earlier work
[5] = system: metastatic TNBC; conditions: cited from earlier work
[6] = system: patients; conditions: olaparib with carboplatin; cited from earlier work
[7] = Expansion (n = 12), veliparib 150 mg bid continuous
[8] = Level 1 (n = 3), veliparib 50 mg bid
[9] = Level 2 (n = 3), veliparib 100 mg bid
[10] = Level 3 (n = 7), veliparib 150 mg bid
[11] = Level 4 (n = 5), veliparib 200 mg bid
[12] = cisplatin without veliparib, BRCA-like phenotype

**Q.** Which results are given for C[C@]1(c2nc3c(C(N)=O)cccc3[nH]2)CCCN1 [veliparib]?
**A.** thrombocytopenia grade 3/4 ([1]; 4 patients of 30, all dose levels and cycles): 13%; anemia grade 3/4 ([1]; 7 patients of 30, all dose levels and cycles): 23%; neutropenia grade 3/4 ([1]; 18 patients of 30, all dose levels and cycles): 60%; relationship between veliparib dose level and incidence or severity of adverse events ([1]; 50-200 mg bid): no clear relationship; ALT increased, any grade ([1]; All Patients (N = 30)): 4 (13%); AST increased, any grade ([1]; All Patients (N = 30)): 3 (10%); Anemia, any grade ([1]; All Patients (N = 30)): 20 (67%); Anemia, grade ≥ 3 ([1]; All Patients (N = 30)): 7 (23%); Anorexia, any grade ([1]; All Patients (N = 30)): 3 (10%); Any Grade ≥ 3 AE ([1]; All Patients (N = 30)): 24 (80%); Any grade AE ([1]; All Patients (N = 30)): 28 (93%); Bruising, any grade ([1]; All Patients (N = 30)): 2 (7%); Dehydration, grade ≥ 3 ([1]; All Patients (N = 30)): 1 (3%); Diarrhea, any grade ([1]; All Patients (N = 30)): 5 (17%); Dysgeusia, any grade ([1]; All Patients (N = 30)): 2 (7%); Fatigue, any grade ([1]; All Patients (N = 30)): 18 (60%); Fatigue, grade ≥ 3 ([1]; All Patients (N = 30)): 1 (3%); Febrile neutropenia, grade ≥ 3 ([1]; All Patients (N = 30)): 1 (3%); Headache, any grade ([1]; All Patients (N = 30)): 3 (10%); Hot flashes, any grade ([1]; All Patients (N = 30)): 4 (13%); Hyperglycemia, any grade ([1]; All Patients (N = 30)): 2 (7%); Hypocalcemia, any grade ([1]; All Patients (N = 30)): 3 (10%); Hyponatremia, any grade ([1]; All Patients (N = 30)): 2 (7%); Hypophosphatemia, any grade ([1]; All Patients (N = 30)): 4 (13%); Hypophosphatemia, grade ≥ 3 ([1]; All Patients (N = 30)): 1 (3%); Lymphocyte count decreased, any grade ([1]; All Patients (N = 30)): 11 (37%); Lymphocyte count decreased, grade ≥ 3 ([1]; All Patients (N = 30)): 7 (23%); Myalgia, any grade ([1]; All Patients (N = 30)): 3 (10%); Nausea, any grade ([1]; All Patients (N = 30)): 16 (53%); Nausea, grade ≥ 3 ([1]; All Patients (N = 30)): 2 (7%); Neutrophil count decreased, any grade ([1]; All Patients (N = 30)): 24 (80%); Neutrophil count decreased, grade ≥ 3 ([1]; All Patients (N = 30)): 18 (60%); Peripheral sensory neuropathy, any grade ([1]; All Patients (N = 30)): 3 (10%); Platelet count decreased, any grade ([1]; All Patients (N = 30)): 22 (73%); Platelet count decreased, grade ≥ 3 ([1]; All Patients (N = 30)): 4 (13%); Rash maculo-papular, any grade ([1]; All Patients (N = 30)): 2 (7%); Vomiting, any grade ([1]; All Patients (N = 30)): 4 (13%); Vomiting, grade ≥ 3 ([1]; All Patients (N = 30)): 1 (3%); White blood cell decreased, any grade ([1]; All Patients (N = 30)): 22 (73%); White blood cell decreased, grade ≥ 3 ([1]; All Patients (N = 30)): 15 (50%); ALT increased, any grade [1, 7]: 3 (25%); AST increased, any grade [1, 7]: 2 (17%); Anemia, any grade [1, 7]: 9 (75%); Anemia, grade ≥ 3 [1, 7]: 3 (25%); Anorexia, any grade [1, 7]: 2 (17%); Any Grade ≥ 3 AE [1, 7]: 11 (92%); Any grade AE [1, 7]: 12 (100%); Bruising, any grade [1, 7]: 1 (8%); Dehydration, grade ≥ 3 [1, 7]: 1 (8%); Diarrhea, any grade [1, 7]: 3 (25%); Fatigue, any grade [1, 7]: 8 (67%); Febrile neutropenia, grade ≥ 3 [1, 7]: 1 (8%); Headache, any grade [1, 7]: 2 (17%); Hot flashes, any grade [1, 7]: 2 (17%); Hypocalcemia, any grade [1, 7]: 1 (8%); Hypophosphatemia, any grade [1, 7]: 3 (25%); Hypophosphatemia, grade ≥ 3 [1, 7]: 1 (8%); Lymphocyte count decreased, any grade [1, 7]: 7 (58%); Lymphocyte count decreased, grade ≥ 3 [1, 7]: 3 (25%); Myalgia, any grade [1, 7]: 2 (17%); Nausea, any grade [1, 7]: 10 (83%); Nausea, grade ≥ 3 [1, 7]: 1 (8%); Neutrophil count decreased, any grade [1, 7]: 10 (83%); Neutrophil count decreased, grade ≥ 3 [1, 7]: 6 (50%); Peripheral sensory neuropathy, any grade [1, 7]: 2 (17%); Platelet count decreased, any grade [1, 7]: 10 (83%); Platelet count decreased, grade ≥ 3 [1, 7]: 2 (17%); Vomiting, any grade [1, 7]: 3 (25%); White blood cell decreased, any grade [1, 7]: 10 (83%); White blood cell decreased, grade ≥ 3 [1, 7]: 7 (58%); Any Grade ≥ 3 AE [1, 8]: 2 (67%); Any grade AE [1, 8]: 2 (67%); Neutrophil count decreased, any grade [1, 8]: 2 (67%); Neutrophil count decreased, grade ≥ 3 [1, 8]: 2 (67%); Platelet count decreased, any grade [1, 8]: 1 (33%); Anemia, any grade [1, 9]: 3 (100%); Any Grade ≥ 3 AE [1, 9]: 2 (67%); Any grade AE [1, 9]: 3 (100%); Bruising, any grade [1, 9]: 1 (33%); Diarrhea, any grade [1, 9]: 2 (67%); Dysgeusia, any grade [1, 9]: 1 (33%); Fatigue, any grade [1, 9]: 3 (100%); Hot flashes, any grade [1, 9]: 1 (33%); Hyperglycemia, any grade [1, 9]: 1 (33%); Hypocalcemia, any grade [1, 9]: 1 (33%); Hyponatremia, any grade [1, 9]: 1 (33%); Myalgia, any grade [1, 9]: 1 (33%); Nausea, any grade [1, 9]: 3 (100%); Neutrophil count decreased, any grade [1, 9]: 3 (100%); Neutrophil count decreased, grade ≥ 3 [1, 9]: 2 (67%); Platelet count decreased, any grade [1, 9]: 3 (100%); Rash maculo-papular, any grade [1, 9]: 1 (33%); White blood cell decreased, any grade [1, 9]: 3 (100%); White blood cell decreased, grade ≥ 3 [1, 9]: 1 (33%); ALT increased, any grade [1, 10]: 1 (14%); AST increased, any grade [1, 10]: 1 (14%); Anemia, any grade [1, 10]: 4 (57%); Anemia, grade ≥ 3 [1, 10]: 2 (29%); Anorexia, any grade [1, 10]: 1 (14%); Any Grade ≥ 3 AE [1, 10]: 4 (57%); Any grade AE [1, 10]: 6 (86%); Dysgeusia, any grade [1, 10]: 1 (14%); Fatigue, any grade [1, 10]: 3 (43%); Headache, any grade [1, 10]: 1 (14%); Hot flashes, any grade [1, 10]: 1 (14%); Hyperglycemia, any grade [1, 10]: 1 (14%); Hypocalcemia, any grade [1, 10]: 1 (14%); Hyponatremia, any grade [1, 10]: 1 (14%); Hypophosphatemia, any grade [1, 10]: 1 (14%); Lymphocyte count decreased, any grade [1, 10]: 2 (29%); Lymphocyte count decreased, grade ≥ 3 [1, 10]: 2 (29%); Nausea, any grade [1, 10]: 2 (29%); Neutrophil count decreased, any grade [1, 10]: 4 (57%); Neutrophil count decreased, grade ≥ 3 [1, 10]: 3 (43%); Peripheral sensory neuropathy, any grade [1, 10]: 1 (14%); Platelet count decreased, any grade [1, 10]: 4 (57%); Platelet count decreased, grade ≥ 3 [1, 10]: 2 (29%); Rash maculo-papular, any grade [1, 10]: 1 (14%); White blood cell decreased, any grade [1, 10]: 4 (57%); White blood cell decreased, grade ≥ 3 [1, 10]: 2 (29%); Anemia, any grade [1, 11]: 4 (80%); Anemia, grade ≥ 3 [1, 11]: 2 (40%); Any Grade ≥ 3 AE [1, 11]: 5 (100%); Any grade AE [1, 11]: 5 (100%); Fatigue, any grade [1, 11]: 4 (80%); Fatigue, grade ≥ 3 [1, 11]: 1 (20%); Lymphocyte count decreased, any grade [1, 11]: 2 (40%); Lymphocyte count decreased, grade ≥ 3 [1, 11]: 2 (40%); Nausea, any grade [1, 11]: 1 (20%); Nausea, grade ≥ 3 [1, 11]: 1 (20%); Neutrophil count decreased, any grade [1, 11]: 5 (100%); Neutrophil count decreased, grade ≥ 3 [1, 11]: 5 (100%); Platelet count decreased, any grade [1, 11]: 4 (80%); Vomiting, any grade [1, 11]: 1 (20%); Vomiting, grade ≥ 3 [1, 11]: 1 (20%); White blood cell decreased, any grade [1, 11]: 5 (100%); White blood cell decreased, grade ≥ 3 [1, 11]: 5 (100%); came off study due to toxicity ([1]; of the total 30 patients enrolled): 10 patients; clearance ([2]; human): 387 mL/min; half-life ([2]; human): 4.8 h; AUC0-12 and Cmax versus dose [2]: increase linearly with dose; DLT ([3]; in vivo): without DLT; patients who experienced a DLT ([3]; in vivo): none; MTD ([3]; with weekly carboplatin and paclitaxel, enrollment to DL4 terminated): not formally reached; ORR [4]: improved ORR; PFS benefit [4]: did not translate into a PFS benefit; PFS at 1 year ([5]; veliparib with cisplatin, BRCA-like phenotype): 20%; rate of grade 3/4 neutropenia ([5]; veliparib with cisplatin): 46%

**Q.** For O=C(c1cc(Cc2n[nH]c(=O)c3ccccc23)ccc1F)N1CCN(C(=O)C2CC2)CC1 [olaparib], which tolerability with carboplatin [6] is on record?
**A.** not tolerable

**Q.** With N.N.[Cl][Pt][Cl] [cisplatin] as the molecule, how does the “PFS at 1 year” value [5, 12] read?
**A.** 7%

**Q.** And the “median PFS” value [5, 12]?
**A.** 4.3 months

**Q.** What about the “rate of grade 3/4 neutropenia” value ([5]; in vivo) of the same molecule?
**A.** 19%
